Assay results: patent US20250049026A1, “BIOCIDAL COMPOSITIONS WITH HYDRONIUM ION SOURCES FOR BIOFILM CONTROL” (ECOLAB USA INC., priority 2020, published 2025)
Marks after values point to notes of the source that are not given here.

Tested on: Pseudomonas aeruginosa (ATCC 15442) biofilm
Assay: Efficacy against biofilm, CDC Biofilm Reactor and Single Tube Method (ASTM E3161-18, ASTM E2871-19)
Type: cell-based
Settings: for Average Log Reduction: 10 min exposure
Protocol: The efficacy against biofilm was performed as described in the standard test methods ASTM E3161-18 (Standard Practice for Preparing a Pseudomonas aeruginosa or Staphylococcus aureus Biofilm using the CDC Biofilm Reactor) and ASTM E2871-19 (Standard Test Method for Determining Disinfectant Efficacy Against Biofilm Grown in the CDC Biofilm Reactor Using the Single Tube Method). A Pseudomonas aeruginosa (ATCC 15442) biofilm was the organism used for determination of composition efficacy against biofilm on hard non-porous surfaces. Biofilm for composition efficacy was generated as outlined in ASTM E3161-18. A 10 uL sample of a thawed frozen stock culture was used to inoculate 10 mL of sterile 100 mg/L Tryptic Soy Broth (TSB) which was then allowed to incubate for 24±2 hours at 35±2° C. Following growth, a 1 mL sample of this initial culture was used to inoculate a CDC Biofilm Reactor containing borosilicate glass coupons and 500 mL of sterile 300 mg/L TSB. The reactor system was allowed to incubate at room temperature (i.e. 21±2° C.) for 24±2 hours with a baffle rotational speed of 125±5 RPM under Batch Phase as directed in ASTM E3161-18. Following Batch Phase growth, Continuous Flow Phase growth was initiated by continuous pumping of 100 mg/L TSB into the reactor system at an appropriate flow rate to ensure the test organism residence time of 30±2 minutes. The reactor system was allowed to incubate at room temperature (i.e. 21±2° C.) for 24±2 hours with a baffle rotational speed of 125±5 RPM under Continuous Flow Phase as directed in ASTM E3161-18. Following completion of the growth, biofilm test carriers were removed from the CDC Biofilm Reactor, rinsed in sterile buffer to remove any non-adhered cells and individual carriers were placed into sterile 50 mL conical tubes for composition treatment. Determination of compositional efficacy against Pseudomonas aeruginosa biofilm was performed as outlined in ASTM E2871-19. A 4 mL sample of each composition (or sterile buffer for control carriers) was pipetted into each corresponding tube containing a test carrier. Triplicate test carriers were analyzed per composition or control. Test and control carriers were allowed to expose for 10 minutes at room temperature (i.e. 21±2° C.). Following exposure, each carrier was appropriately neutralized with 36 mL of Neutralizing Broth. Neutralized carriers were vortex mixed and sonicated to remove/disaggregate the biofilm from the carrier surface as outlined in ASTM E2871-19. Disaggregated biofilm samples were serially diluted in sterile buffer and spread plated onto appropriate agar for determination of plate counts. Log reductions for each composition were determined by comparing the calculated average Log10 from the set of recovered control carriers to the calculated average Log10 from each set of recovered composition carriers. In addition to carrier control determination, an appropriate Neutralization Confirmation Control was performed for each composition to ensure that the Neutralizing Broth chosen appropriately neutralized the test solution.
The various combinations of biocides and hydronium ion (all from sulfuric acid) were evaluated at the use concentration (ppm biocide) pH and moles of hydronium in the use concentration as set forth in Table 2.

[1] = active 100 ppm, pH 2.15, hydronium ion 0.0071 M (sulfuric acid)
[2] = active 100 ppm, pH 2.50, hydronium ion 0.0032 M (sulfuric acid)
[3] = active 100 ppm, pH 3.00, hydronium ion 0.001 M (sulfuric acid)

CC(=O)OO [POAA, Peroxyacetic acid]
micro efficacy (220 ppm, without the hydronium ion): fails to provide sufficient micro efficacy
Average Log Reduction (active 110 ppm, pH 2.29, hydronium ion 0.0051 M (sulfuric acid)): 5.94 log
Average Log Reduction (active 220 ppm, pH 2.00, hydronium ion 0.01 M (sulfuric acid)): 4.45* log
Average Log Reduction (active 220 ppm, pH 2.29, hydronium ion 0.0051 M (sulfuric acid)): 8.70 log
Average Log Reduction (active 220 ppm, pH 2.30, hydronium ion 0.0050 M (sulfuric acid)): 2.42 log
Average Log Reduction (active 220 ppm, pH 2.45, hydronium ion 0.0035 M (sulfuric acid)): 2.11 log
Average Log Reduction (active 220 ppm, pH 2.50, hydronium ion 0.0032 M (sulfuric acid)): 2.15 log
Average Log Reduction (active 220 ppm, pH 2.98, hydronium ion 0.001 M (sulfuric acid)): 2.15 log
Average Log Reduction (active 220 ppm, pH 3.46, hydronium ion 0.00035 M (sulfuric acid)): 2.15 log
Average Log Reduction (active 220 ppm, pH 4.20, hydronium ion 0.000063 M [No hydronium ion source], room temperature): 2.15 log
Average Log Reduction (active 320 ppm, pH 3.45, hydronium ion 0.00035 M (sulfuric acid)): 2.41 log
Average Log Reduction (active 420 ppm, pH 3.46, hydronium ion 0.00035 M (sulfuric acid)): 2.41 log
Average Log Reduction (active 520 ppm, pH 3.44, hydronium ion 0.00035 M (sulfuric acid)): 2.41 log

CCCCCCCC(=O)O [Octanoic acid]
Average Log Reduction [1]: 4.28 log
Average Log Reduction [2]: 7.59 log
Average Log Reduction [3]: 2.19 log
Average Log Reduction (active 100 ppm, pH 6.43, hydronium ion 0.0000 M): 2.07 log
Average Log Reduction (active 200 ppm, pH 6.43, hydronium ion 0.0000 M): 2.15 log
Average Log Reduction (active 300 ppm, pH 6.43, hydronium ion 0.0000 M): 2.15 log
Average Log Reduction (active 400 ppm, pH 6.43, hydronium ion 0.0000 M): 2.15 log

CCCCCCCC(=O)OO [POOA, Peroxyoctanoic acid]
Average Log Reduction [1]: 8.43 log
Average Log Reduction [2]: 7.24 log
Average Log Reduction [3]: 2.19 log
Average Log Reduction (active 100 ppm, pH 5.45, hydronium ion 0.0000 M): 1.95 log

Linear alkylbenzene sulfonate [LAS]
Average Log Reduction (active 1000 ppm, pH 2.15, hydronium ion 0.0071 M (sulfuric acid)): 5.74 log
Average Log Reduction (active 1000 ppm, pH 3.02, hydronium ion 0.00095 M (sulfuric acid)): 2.19 log
Average Log Reduction (active 1000 ppm, pH 7.48, hydronium ion 0.0000 M): 2.07 log
Average Log Reduction (active 2000 ppm, pH 7.48, hydronium ion 0.0000 M): 2.41 log
Average Log Reduction (active 3000 ppm, pH 7.46, hydronium ion 0.0000 M): 2.41 log
Average Log Reduction (active 4000 ppm, pH 7.48, hydronium ion 0.0000 M): 2.41 log
